From patent US10703755B2, “Substituted purine derivative” (SUMITOMO DAINIPPON PHARMA CO., LTD., priority 2016, dated 2020)

Biological target: human TLR7 (Homo sapiens (Human), UniProt Q9NYK1)
Experiment: Test for evaluating the inhibition of the activation of human TLR7 (SEAP reporter, TLR7/NF-κB/SEAPorter HEK293 cell)
Format: cell-based
Conditions: R-848 200 nmol/L; for inhibitory effect against TLR7 in the test for evaluating inhibition of the activation of TLR7: SEAP activity, result in words; for IC50: SEAP reporter
Protocol: As human TLR7 expressing cell line, HEK293 cell line was bought from IMGENEX Corporation (TLR7/NF-ηB/SEAPorter™ HEK293 cell), which is human embryonic kidney cell line and stably expresses full-length human TLR7 gene and secreted alkaline phosphatase (SEAP) reporter gene under the transcriptional control of an NE-ηB response element. The TLR7/NF-ηB/SEAPorter™ HEK293 cell was cultivated with DMEM containing 10% fetal bovine serum (FBS) and 10 μg/mL blasticidin S at 37° C. in the presence of 5% CO2. The TLR7/NF-ηB/SEAPorter™ HEK293 cell was seeded into 96-well microtiter plate at 5×10^4 cell/90 μL/well, and the place was cultivated at 37° C. in a CO2 incubator overnight.
Each compound prepared in the Examples was evaluated by Test 1.

human TLR7, sequence (Q9NYK1 27-1049): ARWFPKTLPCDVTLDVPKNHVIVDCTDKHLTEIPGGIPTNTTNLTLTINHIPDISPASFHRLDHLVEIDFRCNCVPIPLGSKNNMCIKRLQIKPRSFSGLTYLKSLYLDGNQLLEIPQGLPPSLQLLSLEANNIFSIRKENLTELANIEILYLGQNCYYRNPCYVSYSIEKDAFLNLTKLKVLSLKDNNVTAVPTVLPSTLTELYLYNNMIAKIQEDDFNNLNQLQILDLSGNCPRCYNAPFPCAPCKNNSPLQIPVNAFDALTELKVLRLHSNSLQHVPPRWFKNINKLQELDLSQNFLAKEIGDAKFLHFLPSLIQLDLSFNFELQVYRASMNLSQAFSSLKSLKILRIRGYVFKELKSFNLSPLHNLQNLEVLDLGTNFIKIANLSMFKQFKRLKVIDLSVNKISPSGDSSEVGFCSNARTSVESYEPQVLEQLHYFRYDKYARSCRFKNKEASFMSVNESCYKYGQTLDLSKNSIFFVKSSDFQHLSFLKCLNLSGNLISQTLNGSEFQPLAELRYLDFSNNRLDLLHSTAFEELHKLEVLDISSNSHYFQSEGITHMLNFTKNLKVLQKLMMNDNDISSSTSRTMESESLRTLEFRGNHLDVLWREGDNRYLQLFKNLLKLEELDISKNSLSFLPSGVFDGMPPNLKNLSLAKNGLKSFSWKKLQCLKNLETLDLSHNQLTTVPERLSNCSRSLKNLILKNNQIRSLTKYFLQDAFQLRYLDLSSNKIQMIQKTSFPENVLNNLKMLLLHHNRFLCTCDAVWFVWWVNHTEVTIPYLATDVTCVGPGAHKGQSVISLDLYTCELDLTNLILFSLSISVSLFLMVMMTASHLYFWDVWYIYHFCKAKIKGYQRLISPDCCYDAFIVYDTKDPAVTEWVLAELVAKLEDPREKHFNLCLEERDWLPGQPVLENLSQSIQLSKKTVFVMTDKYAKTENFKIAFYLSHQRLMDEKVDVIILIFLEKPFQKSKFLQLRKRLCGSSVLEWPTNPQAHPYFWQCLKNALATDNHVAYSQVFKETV

| Structure (SMILES) | inhibitory effect against TLR7 in the test for evaluating inhibition of the activation of TLR7 | IC50 [µM] |
| --- | --- | --- |
| COc1nc(C)c2nc(-c3cncc(F)c3)n(Cc3ccc(O[C@@H]4CCN(C)C4)cc3F)c2n1 [Example 415, 9-(2-fluoro-4-{[(3R)-1-methylpyrrolidin-3-yl]oxy}benzyl)-8-(5-fluoropyridin-3-yl)-2-methoxy-6-methyl-9H-purine] | potent inhibitory effect against TLR7 | 0.016 |
| CCOc1nc(C)c2nc(-c3cncc(F)c3)n(Cc3ccc(CN4C[C@@H]5C[C@H]4CN5C)cc3)c2n1 [Example 109, 2-ethoxy-8-(5-fluoropyridin-3-yl)-6-methyl-9-(4-{[(1S,4S)-5-methyl-2,5-diazabicyclo[2.2.1]hept-2-yl]methyl}benzyl)-9H-purine] | potent inhibitory effect against TLR7 | 0.01 |
| CCOc1nc(N)c2nc(-c3cncc(OC)c3)n(Cc3ccc(CN(C)C)cc3)c2n1 [Example 36] | – | 2.9 |
| CCOc1nc(N)c2nc(-c3cncc(F)c3)n(Cc3ccc(OCCCN(C)C)nc3)c2n1 [Example 42] | – | 0.55 |
| COc1nc(C)c2nc(-c3cncc(F)c3)n(Cc3ccc(C4CN5CCC4CC5)cc3F)c2n1 (single isomer, unassigned) [Example 392, 9-[4-(1-azabicyclo[2.2.2]oct-3-yl)-2-fluorobenzyl]-8-(5-fluoropyridin-3-yl)-2-methoxy-6-methyl-9H-purine] | – | 0.013 |
| COc1nc(C)c2nc(-c3cncc(F)c3)n(Cc3ccc(CN4CCC4)cc3F)c2n1 [Example 260, 9-[4-(azetidin-1-ylmethyl)-2-fluorobenzyl]-8-(5-fluoropyridin-3-yl)-2-methoxy-6-methyl-9H-purine] | potent inhibitory effect against TLR7 | 0.018 |
| CCOc1nc(C)c2nc(-c3cncc(F)c3)n(Cc3ccc(CN4C[C@H]5C[C@@H]4CN5C)cc3)c2n1 [Example 110, 2-ethoxy-8-(5-fluoropyridin-3-yl)-6-methyl-9-(4-{[(1R,4R)-5-methyl-2,5-diazabicyclo[2.2.1]hept-2-yl]methyl}benzyl)-9H-purine] | potent inhibitory effect against TLR7 | 0.005 |
| COc1nc(C)c2nc(-c3cncc(F)c3)n(Cc3ccc(O[C@H]4CN5CCC4CC5)cc3F)c2n1 [Example 413, 9-{4-[(3R)-1-azabicyclo[2.2.2]oct-3-yloxy]-2-fluorobenzyl}-8-(5-fluoropyridin-3-yl)-2-methoxy-6-methyl-9H-purine] | potent inhibitory effect against TLR7 | 0.009 |
| CCOc1nc(N)c2nc(-c3cncc(F)c3)n(Cc3ccc(C4CCN(C5COC5)CC4)cc3)c2n1 [Example 135] | potent inhibitory effect against TLR7 | 0.085 |
| CCOc1nc(C)c2nc(-c3cncc(F)c3)n(Cc3cnc(CC4CCN(C(=O)OC(C)(C)C)CC4)cc3OC)c2n1 [Example 369] | – | 1.69 |
| COc1nc(C)c2nc(-c3cccnc3)n(Cc3ccc(O[C@H]4C[C@H]5CC[C@@H](C4)N5)cc3F)c2n1 [Example 437] | potent inhibitory effect against TLR7 | 0.016 |
| CCOc1nc(C)c2nc(-c3cncc(F)c3)n(Cc3cnn(CC4COCCN4)c3)c2n1 (centres unmarked) [Example 427] | – | 0.028 |
| CCCN1C[C@@H]2C[C@H]1CN2Cc1ccc(Cn2c(-c3cncc(F)c3)nc3c(C)nc(OC)nc32)cc1 [Example 133, 8-(5-fluoropyridin-3-yl)-2-methoxy-6-methyl-9-(4-{[(1S,4S)-5-propyl-2,5-diazabicyclo[2.2.1]hept-2-yl]methyl}benzyl)-9H-purine] | potent inhibitory effect against TLR7 | 0.013 |
| COc1nc(C)c2nc(-c3cnc(C)nc3)n(Cc3ccc(C4CN5CCC4CC5)cc3F)c2n1 (centres unmarked) [Example 348] | potent inhibitory effect against TLR7 | 0.092 |
| CCOc1nc(C)c2nc(-c3cncc(F)c3)n(Cc3cnc(Cl)c(F)c3)c2n1 [Example 338] | – | 0.667 |
| CCOc1nc(C)c2nc(-c3cncc(F)c3)n(Cc3ccc(CN4[C@@H]5CC[C@H]4CN(C)C5)cc3)c2n1 [Example 265] | potent inhibitory effect against TLR7 | 0.057 |
| CCOc1nc(N)c2nc(-c3cncc(F)c3)n(Cc3ccc(CN4CCC(F)(F)CC4)cc3)c2n1 [Example 99] | – | 0.146 |
| CCOc1nc(N)c2nc(-c3cncc(F)c3)n(Cc3ccc(CN4C[C@@H]5C[C@H]4CN5C)cc3)c2n1 [Example 94] | potent inhibitory effect against TLR7 | 0.02 |
| COc1nc(C)c2nc(-c3cncc(F)c3)n(Cc3ccc(O[C@H]4C[C@H]5CC[C@@H](C4)N5)cc3F)c2n1 [Example 433] | potent inhibitory effect against TLR7 | 0.009 |
| COCCOc1nc(N)c2nc(-c3cncc(F)c3)n(Cc3cccc(CN4CCOCC4)c3)c2n1 [Example 90] | – | 4.2 |
| CCOc1nc(C)c2nc(-c3cncc(F)c3)n(Cc3cnn(CC4COCCN4C)c3)c2n1 (centres unmarked) [Example 274] | – | 0.1 |
| CCOc1nc(C)c2nc(-c3cncc(F)c3)n(Cc3cnn(C4CN5CCC4CC5)c3)c2n1 (centres unmarked) [Example 167] | – | 0.11 |
| COc1nc(C)c2nc(-c3cncc(F)c3)n(Cc3ccc(C4CCNC4)cc3F)c2n1 (centres unmarked) [Example 435] | – | 0.018 |

| Structure (SMILES) | inhibitory effect against TLR7 in the test for evaluating inhibition of the activation of TLR7 | IC50 [µM] |
| --- | --- | --- |
| CCOc1nc(C)c2nc(-c3cncc(F)c3)n(Cc3cnn(CC4CNCCO4)c3)c2n1 (centres unmarked) [Example 425] | – | 0.093 |
| COc1nc(C)c2nc(-c3cccnn3)n(Cc3ccc(OC4CN5CCC4CC5)cc3F)c2n1 (centres unmarked) [Example 441] | – | 0.176 |
| Cc1nc(O)nc2c1nc(-c1cncc(F)c1)n2Cc1ccc(C2=CN3CCC2CC3)c(F)c1 [Example 358] | – | 0.018 |
| COc1nc(C)c2nc(-c3cncc(F)c3)n(Cc3ccc(C4CN5CCC4CC5)cn3)c2n1 (centres unmarked) [Example 371] | – | 0.264 |
| CCOc1nc(N)c2nc(-c3cncc(F)c3)n(Cc3ccc(OC4CCN(C)CC4)nc3)c2n1 [Example 60] | – | 0.23 |
| CCCCCc1nc(N)c2nc(-c3cncc(OC)c3)n(Cc3ccccc3)c2n1 [Example 27] | – | 1.4 |
| COc1nc(C)c2nc(-c3cncc(F)c3)n(Cc3ccc(O[C@@H]4CN5CCC4CC5)nc3)c2n1 [Example 69, 9-({6-[(3S)-1-azabicyclo[2.2.2]oct-3-yloxy]pyridin-3-yl}methyl)-8-(5-fluoropyridin-3-yl)-2-methoxy-6-methyl-9H-purine] | potent inhibitory effect against TLR7 | 0.13 |
| CCOc1nc(C)c2nc(-c3cncc(F)c3)n(Cc3cnn(CCCN(C)C)c3)c2n1 [Example 245] | – | 0.198 |
| COc1nc(C)c2nc(-c3cncc(F)c3)n(Cc3cnn(CCCN(C)C)c3)c2n1 [Example 251] | – | 0.18 |
| CCCOc1nc(C)c2nc(-c3cncc(F)c3)n(Cc3ccc(O[C@@H]4CN5CCC4CC5)nc3)c2n1 [Example 75] | – | 0.2 |
| COc1nc(C)c2nc(-c3cncc(F)c3)n(Cc3ccc(C4CN5CCC4CC5)cc3F)c2n1 (centres unmarked) [Example 314] | potent inhibitory effect against TLR7 | 0.008 |
| COc1nc(C)c2nc(-c3cncc(F)c3)n(Cc3ccc(O[C@@H]4CN5CCC4CC5)cc3F)c2n1 [Example 412, 9-{4-[(3S)-1-azabicyclo[2.2.2]oct-3-yloxy]-2-fluorobenzyl}-8-(5-fluoropyridin-3-yl)-2-methoxy-6-methyl-9H-purine] | potent inhibitory effect against TLR7 | 0.005 |
| COCCOc1nc(N)c2nc(-c3cnc4ccccc4c3)n(Cc3ccc(CN(C)C)cc3)c2n1 [Example 32] | – | 8.6 |
| CCOc1nc(N)c2nc(-c3cncc(F)c3)n(Cc3cnn(C)c3)c2n1 [Example 37] | – | 2.7 |
| CCCCNc1nc(N)c2nc(-c3cncc(F)c3)n(Cc3ccc(CN(C)C)cc3)c2n1 [Example 154] | – | 13.6 |
| COc1nc(C)c2nc(-c3cncc(F)c3)n(Cc3ccc(OCCCN(C)C)cc3F)c2n1 [Example 421] | potent inhibitory effect against TLR7 | 0.073 |
| CCc1nc(N)c2nc(-c3cncc(F)c3)n(Cc3ccc(CN(C)C)cc3)c2n1 [Example 157] | – | 8.9 |
| COc1nc(C)c2nc(-c3cncnc3)n(Cc3ccc([C@H]4CN5CCC4CC5)cc3F)c2n1 [Example 445, 9-{4-[(3S)-1-azabicyclo[2.2.2]oct-3-yl]-2-fluorobenzyl}-2-methoxy-6-methyl-8-(pyrimidin-5-yl)-9H-purine] | potent inhibitory effect against TLR7 | 0.021 |
| CCOc1nc(C)c2nc(-c3cncc(F)c3)n(Cc3cnn(C4CCN(C)CC4)c3)c2n1 [Example 166] | potent inhibitory effect against TLR7 | 0.05 |
| CCOc1nc(N)c2nc(-c3cncc(F)c3)n(Cc3ccc(CN4CCC4)cc3)c2n1 [Example 100] | potent inhibitory effect against TLR7 | 0.096 |
| CCOc1nc(C)c2nc(-c3cncc(F)c3)n(Cc3ccc(C4CN5CCC4CC5)cc3OCC)c2n1 (centres unmarked) [Example 376] | potent inhibitory effect against TLR7 | 0.084 |
| CCOc1nc(C)c2nc(-c3cncc(F)c3)n(Cc3ccc(C4CCCN4C)cc3)c2n1 (centres unmarked) [Example 170] | – | 0.082 |
